This note sets out measurements from patent US9932333B2, “Benzothiazole compound and medicine containing same” (JAPAN SCIENCE AND TECHNOLOGY AGENCY, priority 2014, dated 2018).

Square brackets hold non-standard residues; d marks the D form. Peptide text beside a SMILES is read from it. * marks the point of attachment. X1 = C[n+]1c(-c2ccc3c(c2)CCCN3CCCCCC(=O)*)sc2cc(Br)ccc21; dBip = N[C@H](Cc1ccc(-c2ccccc2)cc1)C(=O)O

One series has as its target Aβ1-42 (Homo sapiens, UniProt P05067). Briefly: Oxygenation of Aβ1-42 in cell culture medium. The following applies: 50 mmol %, light 500 nm, 30 minutes, medium containing 0.1% horse serum. The format is biochemical. An excerpt: Then, the reaction was monitored with a mass spectrometer (MALDI-TOF MS).
The test system of the next series is PC12 cells. The format is cell-based, rat. On the procedure:
The solution was added at 50 μL/well to rat adrenal medulla-derived pheochromocytoma PC12 cells (purchased from RIKEN, Japan) inoculated to a poly-D-lysine-coated 96-well plate and similarly reacted. The reaction solution in each well was diluted with 50 μL of a Dulbecco's modified eagle's medium containing 0.1% horse serum (final concentration of Aβ: 10 μM) and then incubated at 37° C. for 48 hours in a 5% CO2 atmosphere. A live cell count measurement reagent SF containing WST-8 (10 μL; purchased from Nacalai Tesque, Inc.) was added to each well, and the mixture was incubated at 37° C. for 3 hours in a 5% CO2 atmosphere. Then, the cell viability was measured from absorbance at 450 nm (reference wavelength: 655 nm).

A further series concerns the target angiotensin IV (Homo sapiens, UniProt P01019). Briefly: Oxidation reaction of angiotensin IV (Example 3). The format is biochemical. The following applies: light irradiation 1.5 hours, neutral buffer, 37° C. An excerpt:
(§1) Then, the reaction was monitored with a mass spectrometer (MALDI-TOF MS) or LC/MS (ESI-Q).

The target in a further series is methionine enkephalin (Homo sapiens, UniProt P01210). Briefly: Oxidation reaction of methionine enkephalin (Example 3). The format is biochemical. The settings on record: light irradiation 1.5 hours, neutral buffer, 37° C.
Source text: as §1

A further series deals with T1, amylin (Homo sapiens, UniProt P10997).
T1 construct: amylin, a hormone essential for glycemic control
T1 sequence (P10997 34-70 limits assumed): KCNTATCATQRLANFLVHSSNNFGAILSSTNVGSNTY
As to the kind of experiment: Oxidation reaction of amylin. The following applies: pre-incubation 0 h. The class given is biochemical. On the procedure:
as §1
The amino acid analysis of oxidized Aβ1-42 and oxidized amylin (carried out by Peptide Institute, Inc.) was conducted. The oxidized Aβ1-42 and the oxidized amylin were enzymatically digested with endopeptidase Lys-C and chymotrypsin, respectively, and the obtained digests were analyzed with a mass spectrometer (MALD-TOF MS) and LC/MS/MS (ESI-Q-TOF).

Series [1] has as its target Aβ1-42 aggregated in advance (Homo sapiens, UniProt P05067). As to the kind of experiment: Aβ affinity (Kd association curve from fluorescence intensity). The class given is binding. The following applies: aggregated Aβ1-42 0.5 μM, phosphate buffer pH 7.4, room temperature 1 hour. From the text:
For compound (1a), the excitation wavelength was set to 460 nm, and the fluorescence wavelength was set to 515 nm. A Kd association curve was obtained from the fluorescence intensity using KaleidaGraph 4.5 (Synergy Software, Reading, Pa.).

Sequence of Aβ1-42 aggregated in advance (P05067 672-713 limits assumed): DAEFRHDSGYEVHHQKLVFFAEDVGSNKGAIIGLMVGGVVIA
Sequence of Aβ1-42 (P05067 672-713 limits assumed): as above

Regarding `CC(C)C[C@@H](NC(=O)[C@@H](CCCCN)NC(=O)CCCCCN1CCCc2cc(-c3sc4cc(Br)ccc4[n+]3C)ccc21)C(=O)N[C@@H](C(=O)N[C@H](Cc1ccc(-c2ccccc2)cc1)C(=O)N[C@H](Cc1ccccc1)C(=O)O)C(C)C` [1e] (X1-[dK][dL][dV][dBip][dF]-OH), the “oxygenation of Aβ in a cell medium” value on Aβ1-42 is recorded as “approximately 40%”. For the same molecule, the “phototoxicity (cell viability)” value with PC12 cells is “no phototoxicity”.
`Cc1cc2nc3c(=O)[nH]c(=O)nc-3n(C[C@H](O)[C@H](O)[C@H](O)CO)c2cc1C` [riboflavin, reference compound]: the “oxygenation of angiotensin IV” value at angiotensin IV is listed as “approximately 40%”. For the same molecule, the “oxygenation of methionine enkephalin” value at methionine enkephalin is ~60%. Moreover, on amylin, the “oxygenation of amylin in a monomeric state” value is on record as “high oxidative activity against monomeric amylin”.
Turning to `C[n+]1c(-c2cc3c4c(c2)CCCN4CCC3)sc2cc(Br)ccc21` [compound (1a)], in series [1], the Kd came out at 1100 nM.
